Data on 1 compound can be found in patent US11401243B2, “Quinoline derived small molecule inhibitors of nicotinamide N-methyltransferase (NNMT) and uses thereof” (priority 2017, dated 2022).

In this series the test system is 3T3-L1 pre-adipocytes cells. Put plainly: MTT cell viability assay. The series is classed as cell-based. As for the experimental part:
Cells were treated for 24 h with 0.1-600 μM NNMT inhibitors in cell culture media. A 24 h time point was chosen based on a previous report of using this time period for transfecting or treating 3T3-L1 cells with NNMT anti-sense oligonucleotides or a small molecule NNMT product inhibitor (1-MNA), respectively, for phenotypic measures. MTT (3-(4,5-dimethylthiazol-2-yl)-2,5-diphenyltetrazolium bromide) (ATCC; Manassas, Va., USA) was added to each well and assayed according to the manufacturer's instructions. Absorbance corresponding to the amount of formazan dye produced by treated cells was normalized to that produced by control (untreated) cells to calculate % viable cells in the treated samples.
On the technique in general: Formazan colour is commonly taken as a measure of viable cells.

Take `C[n+]1cccc2c(N)cccc21` [1j, 5-amino-1-methylquinolin-1-ium iodide]: the cell viability result (3T3-L1 pre-adipocytes, 10 μM, 24 h) was “did not impact cell viability”. Also, where the note is “3T3-L1 pre-adipocytes, 600 μM (highest concentration tested), 24 h”, the cytotoxicity is on record as roughly 40%. In addition, the “cytotoxicity relative to untreated cells” value (3T3-L1 pre-adipocytes, 100-300 μM, 24 h) is “modest cytotoxicity”. Also, the “3T3-L1 cell viability compared to untreated” value (highest tested concentration (0.1-60 μM range)) is “only slightly reduced”.
